Assay results published in patent US8232406B2, “c-MET protein kinase inhibitors” (Vertex Pharmaceuticals Incorporated, priority 2006, dated 2012).

Target: c-MET (Homo sapiens, UniProt P08581)
Experiment: Ki determination for the inhibition of c-MET (standard radiometric 33P-ATP kinase assay, polyE4Y substrate)
Format: biochemical
Conditions: 1.0 nM c-Met, 35 μM ATP, 0.5 mg/mL polyE4Y, 20 min; competitive tight-binding fit
Method in brief: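 Radiometric assay of 33P transfer from 33P-ATP (35 μM) to polyE4Y (0.5 mg/mL) by 1.0 nM c-Met in 100 mM HEPES pH 7.5, 10 mM MgCl2, 25 mM NaCl, 0.01% BSA, 1 mM DTT. TCA-quenched after 20 min, filter-captured, scintillation-counted; Ki fitted to a competitive tight-binding model.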

c-MET, sequence (P08581 25-1390): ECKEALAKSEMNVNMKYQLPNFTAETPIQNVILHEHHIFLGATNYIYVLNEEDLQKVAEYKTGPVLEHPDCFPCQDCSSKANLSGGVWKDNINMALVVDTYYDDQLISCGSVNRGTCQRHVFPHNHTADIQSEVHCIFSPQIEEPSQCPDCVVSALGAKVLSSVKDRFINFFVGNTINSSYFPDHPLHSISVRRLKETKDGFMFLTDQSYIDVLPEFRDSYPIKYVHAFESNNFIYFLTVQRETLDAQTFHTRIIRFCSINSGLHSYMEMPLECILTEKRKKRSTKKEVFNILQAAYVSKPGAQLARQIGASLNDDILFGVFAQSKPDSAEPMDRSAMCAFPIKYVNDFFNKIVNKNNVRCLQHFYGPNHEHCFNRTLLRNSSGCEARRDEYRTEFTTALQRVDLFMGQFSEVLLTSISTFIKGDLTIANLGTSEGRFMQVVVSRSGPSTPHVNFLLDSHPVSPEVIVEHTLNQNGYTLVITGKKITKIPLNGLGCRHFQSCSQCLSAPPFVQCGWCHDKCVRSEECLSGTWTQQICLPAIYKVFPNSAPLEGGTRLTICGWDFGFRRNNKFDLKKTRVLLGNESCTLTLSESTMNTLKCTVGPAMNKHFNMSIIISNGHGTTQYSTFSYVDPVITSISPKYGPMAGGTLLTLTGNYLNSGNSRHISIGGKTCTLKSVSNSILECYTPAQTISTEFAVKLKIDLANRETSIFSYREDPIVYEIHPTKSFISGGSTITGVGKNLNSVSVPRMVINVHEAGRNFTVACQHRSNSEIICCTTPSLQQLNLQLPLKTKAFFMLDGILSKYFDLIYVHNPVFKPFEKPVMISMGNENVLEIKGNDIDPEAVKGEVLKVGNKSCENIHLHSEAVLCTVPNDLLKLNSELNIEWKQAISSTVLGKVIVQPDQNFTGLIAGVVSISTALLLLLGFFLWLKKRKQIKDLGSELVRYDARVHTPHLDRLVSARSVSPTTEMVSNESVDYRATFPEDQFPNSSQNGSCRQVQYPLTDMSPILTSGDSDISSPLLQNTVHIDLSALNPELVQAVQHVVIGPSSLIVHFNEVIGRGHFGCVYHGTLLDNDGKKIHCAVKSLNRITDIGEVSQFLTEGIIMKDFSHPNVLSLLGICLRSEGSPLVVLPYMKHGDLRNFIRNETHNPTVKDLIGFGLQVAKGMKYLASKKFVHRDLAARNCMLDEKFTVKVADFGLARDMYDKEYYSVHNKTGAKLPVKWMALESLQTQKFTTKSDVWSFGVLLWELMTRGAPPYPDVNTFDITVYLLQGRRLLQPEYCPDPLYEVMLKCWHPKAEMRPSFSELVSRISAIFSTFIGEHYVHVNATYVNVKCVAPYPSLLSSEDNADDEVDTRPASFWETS

SMILES	Ki
CN(C)Cc1ccc(-c2cnc(N)c(-c3nnnn3-c3cc(Cl)cc(Cl)c3)c2)cc1 [I-A-590]	100 to 1000 nM
Nc1ncc(-c2ccc3c(c2)NC(=O)C3)cc1-c1nnnn1-c1cccc(F)c1F [I-A-190]	≤ 100 nM
Nc1ncc(C2=CCN(C(=O)[C@H]3CCC(=O)N3)CC2)cc1-c1nnnn1-c1cccc(F)c1F [I-A-657]	≤ 100 nM
Nc1ncc(-c2ccc3ncccc3c2)cc1-c1nnnn1-c1cccc(F)c1F [I-A-321]	≤ 100 nM
Nc1ncc(-c2cnn([C@H]3CCCNC3)c2)nc1-c1nnnn1-c1cccc(Cl)c1F [I-A-658]	≤ 100 nM
Cc1ccc(Cl)cc1-n1nnnc1-c1cc(-c2cnn(C3CCNCC3)c2)cnc1N [I-A-632]	100 to 1000 nM
CC(C)CC(=O)N1CC=C(c2cnc(N)c(-c3nnnn3-c3cccc(F)c3F)c2)CC1 [I-A-513]	≤ 100 nM
Nc1ncc(-c2cnc(C3CCNCC3)s2)cc1-c1nnnn1-c1cccc(Cl)c1F [I-A-491]	≤ 100 nM
CN[C@@H](C)c1ccc(-c2cnc(N)c(-c3nnnn3-c3cccc(F)c3F)c2)cc1 [I-A-351]	≤ 100 nM
Nc1ncc(-c2cnn(C3CCNCC3)c2)cc1-c1nnnn1-c1cc(F)ccc1F [I-A-625]	100 to 1000 nM
Nc1ncc(-c2cnn(C3CCCNCC3)c2)cc1-c1nnnn1-c1cccc(Cl)c1F (centres unmarked) [I-A-651]	≤ 100 nM
CN1CCC[C@H]1C(=O)N1CC=C(c2cnc(N)c(-c3nnnn3-c3cccc(F)c3F)c2)CC1 [I-A-503]	≤ 100 nM
Nc1ncc(-c2cnn(C3CCNCC3)c2)cc1-c1nnnn1-c1cccc(F)c1F [I-A-370]	≤ 100 nM
NCc1ccc(-c2cnc(N)c(-c3nnnn3-c3cccc(F)c3F)c2)cn1 [I-A-155]	100 to 1000 nM
COc1ccncc1-c1cnc(N)c(-c2nncn2-c2cccc(F)c2F)c1 [I-A-110]	100 to 1000 nM
NCc1cccc(-c2cnc(N)c(-c3nnnn3-c3cccc(Cl)c3Cl)c2)c1 [I-A-87]	≤ 100 nM
Nc1ncc(-c2cnn(C3CCNCC3)c2)cc1-c1nccn1-c1cccc(Cl)c1Cl [I-A-394]	≤ 100 nM
Nc1ncc(-c2ccc(F)nc2)cc1-c1nnnn1-c1cccc(F)c1F [I-A-318]	100 to 1000 nM
Nc1ncc(-c2ccc(NC(=O)NC3CCCC3)cc2)cc1-c1nnnn1-c1cccc(F)c1F [I-A-333]	100 to 1000 nM
CC(C)(C)NC(=O)Nc1ccc(-c2cnc(N)c(-c3nnnn3-c3cccc(F)c3F)c2)cc1 [I-A-332]	≤ 100 nM
CN1CCN(c2ccc(-c3cnc(N)c(-c4nn(C)cc4-c4cccc(Cl)c4Cl)c3)cc2)CC1 [I-B-21]	100 to 1000 nM

SMILES	Ki
CC(=O)Nc1cccc(-c2cnc(N)c(-c3nc4cnccc4n3-c3cccc(F)c3F)c2)c1 [I-D-12]	≤ 100 nM
CN(C)Cc1ccc(-c2cnc(N)c(-c3nnnn3-c3cc(F)cc(F)c3)c2)cc1 [I-A-591]	100 to 1000 nM
Nc1ncc(-c2cccc(NC(=O)Nc3cccnc3)c2)cc1-c1nnnn1-c1cccc(F)c1F [I-A-272]	≤ 100 nM
CC(=O)Nc1cccc(-c2cnc(N)c(-c3nnnn3-c3cccc(Cl)c3F)c2)c1 [I-A-344]	≤ 100 nM
Nc1ncc(-c2cc(F)ccc2O)cc1-c1nnnn1-c1cccc(F)c1F [I-A-292]	≤ 100 nM
Cn1cncc1-c1cnc(N)c(-c2nnnn2-c2cccc(F)c2F)c1 [I-A-496]	100 to 1000 nM
Nc1ncc(-c2ccc(O)cc2)cc1-c1nnnn1-c1cccc(F)c1F [I-A-144]	≤ 100 nM
CSc1ccccc1-c1cnc(N)c(-c2nnnn2-c2cccc(F)c2F)c1 [I-A-252]	100 to 1000 nM
Nc1ncc(-c2cnn(C3CCNCC3)c2)cc1-c1nc2cc(F)ccc2n1-c1cccc(Cl)c1F [I-D-19]	≤ 100 nM
CC(=O)N1CCC(n2cc(-c3cnc(N)c(-c4nnnn4-c4cccc(Cl)c4F)c3)cn2)CC1 [I-A-399]	≤ 100 nM
Nc1ncc(-c2ccc(CN3CCCC3)cc2)cc1-c1nnnn1-c1c(F)ccc(Cl)c1F [I-A-376]	≤ 100 nM
N#CCN1CCC(n2cc(-c3cnc(N)c(-c4nnnn4-c4cccc(F)c4F)c3)cn2)CC1 [I-A-462]	≤ 100 nM
CN(C)Cc1ccc(-c2cnc(N)c(-c3nnnn3-c3cccc(F)c3F)c2)cc1F [I-A-165]	≤ 100 nM
CC(=O)N1CC=C(c2cnc(N)c(-c3nnnn3-c3cccc(F)c3F)c2)CC1 [I-A-510]	≤ 100 nM
Nc1ncc(-c2ccn(C3CCNCC3)c2)nc1-c1nnnn1-c1cccc(F)c1F [I-A-534]	≤ 100 nM
CC(=O)c1ccc(-c2cnc(N)c(-c3nnnn3-c3cccc(F)c3F)c2)s1 [I-A-179]	100 to 1000 nM
CN(C)Cc1ccc(-c2cnc(N)c(-c3nc4cc(F)ccc4n3-c3cccc(Cl)c3F)c2)cc1 [I-D-22]	100 to 1000 nM
Nc1ccc(-c2cnc(N)c(-c3nnnn3-c3cccc(F)c3F)c2)cc1[N+](=O)[O-] [I-A-312]	≤ 100 nM
Nc1ncc(C2=CCCN(C(=O)C(F)(F)F)CC2)cc1-c1nnnn1-c1cccc(F)c1F [I-A-647]	100 to 1000 nM
CCOC(=O)CC(=O)Nc1ccc(-c2cnc(N)c(-c3nnnn3-c3cccc(F)c3F)c2)cc1 [I-A-196]	100 to 1000 nM
CN(C)Cc1ccc(-c2cnc(N)c(-c3nnnn3-c3cccc(F)c3F)c2)cn1 [I-A-154]	100 to 1000 nM

SMILES	Ki
COCCn1cc(-c2cnc(N)c(-c3nnnn3-c3cccc(F)c3F)c2)cn1 [I-A-367]	≤ 100 nM
Nc1ncc(-c2cnn([C@H]3CCCNC3)c2)cc1-c1nnnn1-c1cccc(F)c1F [I-A-405]	≤ 100 nM
Nc1ncc(-c2ccc3[nH]ncc3c2)cc1-c1nnnn1-c1cccc(F)c1F [I-A-347]	≤ 100 nM
CC1CN(Cc2ccc(-c3cnc(N)c(-c4nnnn4-c4cccc(Cl)c4Cl)c3)cc2)CCN1 (centres unmarked) [I-A-106]	≤ 100 nM
Nc1ncc(-c2nc3c(s2)CNCC3)cc1-c1nnnn1-c1cccc(Cl)c1F [I-A-533]	100 to 1000 nM
CCCN1CCC(n2cc(-c3cnc(N)c(-c4nnnn4-c4cccc(Cl)c4F)c3)cn2)CC1 [I-A-470]	≤ 100 nM
Nc1ncc(-c2cnn(C3CCCNCC3)c2)cc1-c1nnnn1-c1cccc(F)c1F (centres unmarked) [I-A-428]	≤ 100 nM
COc1ccc(-c2cnc(N)c(-c3nnnn3-c3cccc(F)c3F)c2)cc1OC [I-A-309]	≤ 100 nM
CC(c1ccc(-c2cnc(N)c(-c3nnnn3-c3cccc(Cl)c3Cl)c2)cc1)N(C)C (centres unmarked) [I-A-100]	≤ 100 nM
Nc1ncc(-c2cccc(NC(=O)NC3CCCCO3)c2)cc1-c1nnnn1-c1cccc(F)c1F (centres unmarked) [I-A-273]	≤ 100 nM
Nc1ncc(-c2cccc(NC(=O)C3CC3)c2)cc1-c1nnnn1-c1cccc(F)c1F [I-A-261]	≤ 100 nM
CC(=O)N1CCCC1c1ccc(-c2cnc(N)c(-c3nnnn3-c3cccc(F)c3F)c2)cc1 (centres unmarked) [I-A-335]	≤ 100 nM
Nc1ncc(-c2ccc(CN3CCCC3)cc2)cc1-c1nnnn1-c1c(F)cccc1Cl [I-A-616]	≤ 100 nM
CC1CCCN1Cc1ccc(-c2cnc(N)c(-c3nnnn3-c3cccc(F)c3F)c2)cc1 (centres unmarked) [I-A-209]	≤ 100 nM
CC(C)(C)NC(=O)Nc1cccc(-c2cnc(N)c(-c3nnnn3-c3cccc(F)c3F)c2)c1 [I-A-328]	≤ 100 nM
Nc1ncc(-c2cnn([C@@H]3CCCNC3)c2)cc1-c1nnnn1-c1cccc(F)c1F [I-A-417]	≤ 100 nM
CC(=O)Nc1ccc(-c2cnc(N)c(-c3nnnn3-c3c(F)ccc(F)c3Cl)c2)cc1 [I-A-614]	100 to 1000 nM
Nc1ncc(-c2ccc(CN3CCCC3)cc2)cc1-c1nccn1-c1cccc(Cl)c1Cl [I-A-393]	≤ 100 nM
CNc1ccc(-c2cnc(N)c(-c3nnnn3-c3cccc(F)c3F)c2)cc1C#N [I-A-341]	≤ 100 nM
CCNC(=O)Nc1nc2cc(-c3cnc(N)c(-c4nnnn4-c4cccc(F)c4F)c3)c(F)cc2[nH]1 [I-A-140]	100 to 1000 nM
CC1(C)CC(C(=O)N2CC=C(c3cnc(N)c(-c4nnnn4-c4cccc(F)c4F)c3)CC2)CCO1 (centres unmarked) [I-A-515]	≤ 100 nM

SMILES	Ki
COc1c(F)cccc1-n1nnnc1-c1cc(-c2cccnc2)cnc1N [I-A-561]	100 to 1000 nM
N#Cc1cccc(-c2cnc(N)c(-c3nncn3-c3cccc(F)c3F)n2)c1 [I-A-30]	100 to 1000 nM
Nc1ncc(-c2cnn(C3CCNCC3)c2)cc1-c1nnnn1-c1c(F)ccc(Cl)c1F [I-A-382]	≤ 100 nM
Nc1ncc(-c2cc(C(=O)O)cs2)cc1-c1nnnn1-c1cccc(F)c1F [I-A-185]	100 to 1000 nM
CC(C)(C)CC(=O)Nc1ccc(-c2cnc(N)c(-c3nnnn3-c3cccc(F)c3F)c2)cc1 [I-A-199]	≤ 100 nM
Nc1ncc(C2=CCN(C(=O)[C@@H]3CCOC3)CC2)cc1-c1nnnn1-c1cccc(F)c1F [I-A-527]	≤ 100 nM
CC(=O)Nc1ccc(-c2cnc(N)c(-c3nnnn3-c3c(Cl)cccc3Cl)c2)cc1 [I-A-621]	100 to 1000 nM
CC(C)C(=O)Nc1cccc(-c2cnc(N)c(-c3nnnn3-c3cccc(F)c3F)c2)c1 [I-A-260]	100 to 1000 nM
Nc1ncc(-c2cc(F)ccc2F)cc1-c1nnnn1-c1cccc(F)c1F [I-A-294]	100 to 1000 nM
CC(C)C(=O)N1CCC(n2cc(-c3cnc(N)c(-c4nnnn4-c4cccc(Cl)c4F)c3)cn2)CC1 [I-A-441]	≤ 100 nM
CC(=O)Nc1cccc(-c2cnc(N)c(-n3nnnc3-c3cccc(F)c3F)c2)c1 [I-E-5]	100 to 1000 nM
Nc1ncc(-c2cnn(C3COCOC3)c2)cc1-c1nnnn1-c1cccc(F)c1F [I-A-432]	≤ 100 nM
COc1ccc(OC)c(-c2cnc(N)c(-c3nnnn3-c3cccc(F)c3F)c2)c1 [I-A-306]	100 to 1000 nM
Nc1ncc(-c2cc(F)c(N)c(F)c2)cc1-c1nnnn1-c1cccc(F)c1F [I-A-303]	≤ 100 nM
Nc1ncc(-c2ccc(CO)cc2)cc1-c1nnnn1-c1cccc(Cl)c1Cl [I-A-90]	≤ 100 nM
Cc1ccc(Cl)cc1-n1nnnc1-c1cc(-c2ccc(CN(C)C)cc2)cnc1N [I-A-579]	100 to 1000 nM
CN1C2CCC1CC(n1cc(-c3cnc(N)c(-c4nnnn4-c4cccc(F)c4F)c3)nn1)C2 (centres unmarked) [I-A-484]	≤ 100 nM
Nc1ncc(-c2cnn(Cc3ccccc3)c2)cc1-c1nnnn1-c1cccc(F)c1F [I-A-349]	≤ 100 nM
Nc1ncc(-c2ccc(NC(=O)Nc3cccs3)cc2)cc1-c1nnnn1-c1cccc(F)c1F [I-A-282]	100 to 1000 nM
Nc1ncc(-c2cnn(C3CCNCC3)c2)cc1-c1nc2cccnc2n1-c1cccc(Cl)c1F [I-D-15]	100 to 1000 nM
